In patent US12491187B2, “Use of MCT1 inhibitors to enhance insulin sensitivity” (H. LEE MOFFIT CANCER CENTER AND RESEARCH INSTITUTE, INC., priority 2022, dated 2025):

Key:
Format in all cases: cell-based, murine
[1] = system: differentiated 3T3-L1 cells; test: NADP+ + NADPH bioavailability (NADP+/NADPH-Glo); details: 1 μM
Method: NADP++NADPH Bioavailability: 3T3-L1 cells were seeded, differentiated and treated with or without AZD3965 (1 μM) for up to 72 hr in clear 96 well plates (Corning®). Following treatment, the NADP+/NADPH-Glo™ (Promega®) kit was used to measure the total NADP++NADPH concentration within each sample according to the manufacturer's instructions. In the presence of either NADP+ or NADPH, an enzyme ‘Reductase’ reduces a pro-luciferin reductase substrate to form luciferin which emits a luminescent signal directly proportional to the quantity of NADP+ and NADPH. Luminescence was read on a spectrophotometer (FlexStation 3; Molecular Devices).

[2] = system: differentiated 3T3-L1 adipocytes; test: Hyperplasia (intracellular triglycerides, Triglyceride-Glo)
Method: Hyperplasia (Intracellular Triglycerides): 3T3-L1 cells were seeded and differentiated in clear bottom 96-well plates (Corning®). After differentiation, cells were treated with or without 1 μM AZD3965 for 24 hr, 48 hr or 72 hr. After compound incubation, media was changed to normal growth media with or without 100 nM insulin and cultured for an additional 72 hrs. Upon completion of the second incubation period, adipocytes were lysed and subjected to the Triglyceride-Glo™ Assay (Promega®) according to the manufacturer's instructions. The luminescent signal produced is proportional to the amount of triglycerides detected within the sample. Luminescence was read on a spectrophotometer (FlexStation 3; Molecular Devices).

[3] = system: 3T3-L1-shMCT1 cells; test: Glucose uptake (Glucose Uptake-Glo) in MCT1 knockdown cells
Method: (§1) Cell Line Development: Lenti plasmid vectors containing shRNA targeting MCT1 or a shScramble sequence were purchased from Genocopia. Lentiviral particles were produced using HEK293T cells and a third-generation packaging system, MISSION Lentiviral Packaging Mix, as per manufacturer's (Sigma-Aldrich) recommendations. To generate shMCT1 cells, 3T3-L1 cells were seeded and transduced with optimized titers of freshly harvested lentivirus. 12 hr after transduction, medium was changed, and cells were allowed to recover for 24 h before being placed under antibiotic selection (2 μg/mL puromycin [Clontech]) for 3-6 days. Cells surviving antibiotic selection were harvested for both reverse transcription quantitative chain polymerase reaction (RT-qPCR) and immunoblotting analyses.
(§2) Glucose Uptake: 3T3-L1 cells were seeded and differentiated in clear bottom 96-well plates (Corning®). After differentiation, cells were treated with or without […] AZD3965 for 24 hr, 48 hr or 72 hr as illustrated in FIG. 7 (schematic outline of experimental procedure). The cells were incubated in serum free media the night before performing the assay. […] Glucose Uptake was measured using the Glucose Uptake-Glo™ Assay (Promega®) according to the manufacturer's protocol. The data generated were normalized by dividing the relative luminescence units (RLU) measured in insulin stimulated wells by vehicle treated controls. […]

[4] = system: preadipocytes (3T3-L1); test: Proliferation (CyQUANT NF) of preadipocytes; details: 72 hr
[5] = system: differentiated 3T3-L1 (WT) cells; details: mouse
Method: Cell Viability: 3T3-L1 cells were seeded and differentiated in white, clear bottom, 384-well plates (Corning®). Following differentiation, adipocytes were treated for 24, 48 or 72 hr with varying concentrations of AZD3965 ranging from 0.1 nM to 10 µM. Following the indicated incubation period, cells were assayed with CytoTox-Glo™ (Promega®) according the manufacturer's instructions to assess cell toxicity. Briefly, this assay is a luminescent cytotoxicity kit that measures the relative number of dead cells in a population through the addition of a cell impermeant luminogenic substrate which luminesces in the presence of ‘dead-cell protease’, a protein released from membrane-compromised, dead cells. Luminescence was read on a spectrophotometer (FlexStation 3; Molecular Devices). The data generated were normalized by dividing the relative luminescence units (RLU) collected for each experimental condition by the average RLU of ‘basal’ untreated cells considered to be 100% viable.

[6] = system: differentiated 3T3-L1 cells; test: Lipolysis (intracellular glycerol, Glycerol-Glo); details: 1 μM, all time points measured (24, 48, 72 hr)
Method: Lipolysis (Intracellular Glycerol): 3T3-L1 cells were seeded, differentiated and treated with or without AZD3965 (1 μM) for up to 72 hr in clear 96 well plates (Corning®). After media removal and washing cells with PBS, the Glycerol-Glo™ (Promega®) assay kit was used to assess changes in lipolysis through the quantification of intracellular glycerol according to the manufacturer's instructions. A luminescent signal is produced that is proportional to the amount of glycerol within the sample Luminescence was read on a spectrophotometer (FlexStation 3; Molecular Devices).

[7] = system: 3T3-L1-shScramble cells; test: Glucose uptake (Glucose Uptake-Glo) in shScramble control cells; details: 1 μM for 72 hr, 175 nM insulin
Method: as §1, §2

## Cc1[nH]nc(C(F)(F)F)c1Cc1sc2c(c1C(=O)N1C[C@](C)(O)CO1)c(=O)n(C)c(=O)n2C(C)C [AZD3965, 5-[[(4S)-4-hydroxy-4-methyl-2-isoxazolidinyl]carbonyl]-3-methyl-1-(1-methylethyl)-6-[[5-methyl-3-(trifluoromethyl)-1H-pyrazol-4-yl]methyl]-thieno[2,3-d]pyrimidine-2,4 (1H, 3H)-dione]
[1]; 24 hr, 48 hr and 72 hr
  concentration of NADP+/NADPH cofactor species: subtle, yet significant decrease
[1]; up to 72 hr
  decrease in intracellular concentrations of NADP+ (H): less than 15%
[2]; pretreated 1 μM 24 hr and 72 hr, then cultured 72 hr with 100 nM insulin
  total triglyceride content: did not reach statistical significance
[2]; pretreated 1 μM 48 hr, then cultured 72 hr with 100 nM insulin
  total triglyceride content: significantly more triglycerides
[2]; pretreated 1 μM up to 72 hr, then cultured 72 hr without insulin
  total triglyceride content: significantly more triglycerides
[3]; 1 μM for 72 hr, 175 nM insulin
  insulin-stimulated glucose uptake: do not respond to insulin as robustly as WT 3T3-L1 cells or show any increase
[3]; 1 μM, up to 72 hr
  basal, non-insulin stimulated glucose uptake: no significant changes
[4]
  proliferation: no effect on proliferation
[5]
  cytotoxicity / cell viability: not due to AZD3965-induced cytotoxicity
[6]
  intracellular glycerol levels (lipolysis): significantly increased
[7]
  insulin-stimulated glucose uptake: augmented
